Measurements: US9284333B2, “Fused pyrroledicarboxamides and their use as pharmaceuticals” (SANOFI, priority 2012, dated 2016)

biological target: Human TASK-1 channels (Homo sapiens (Human), UniProt O14649); experiment: Determination of the activity on the TASK-1 channel in Xenopus oocytes (two-microelectrode voltage clamp); format: cell-based; conditions: human TASK-1 expressed in Xenopus oocytes, room temperature; read-out: IC50 value for TASK-1 inhibition
Description: Determination of the activity on the TASK-1 channel in Xenopus oocytes
Human TASK-1 channels were expressed in Xenopus oocytes. For this purpose, oocytes were isolated from Xenopus laevis and defoliculated. Subsequently, TASK-1-encoding RNA synthesized in vitro was injected into the oocytes. After two days of TASK-1 protein expression, TASK-1 currents were measured by two-microelectrode voltage clamp. Data were acquired and analyzed using a TEC-10cx amplifier (NPI Electronic, Tamm, Germany) connected to an ITC-16 interface (Instrutech Corp., Long Island, USA) and Pulse software (HEKA Elektronik, Lambrecht, Germany). Oocytes were clamped to −90 mV and TASK-1 mediated currents were measured during 500 ms voltage pulses to 40 mV. Oocytes were continuously superfused with ND96 buffer containing 96 mM sodium chloride, 2 mM potassium chloride, 1.8 mM calcium chloride, 1 mM magnesium chloride, 5 mM 4-(2-hydroxyethyl)-piperazine-1-ethanesulfonic acid (HEPES; pH adjusted to 7.4 with sodium hydroxide). All experiments were performed at room temperature. Test compounds were consecutively added to the bath solution at rising concentrations. Compound effects were calculated as the percentage inhibition of TASK-1 control current before compound addition. IC50 values were obtained by fitting the data to the general dose-response equation.

Chain of Human TASK-1 channels (O14649 whole entry): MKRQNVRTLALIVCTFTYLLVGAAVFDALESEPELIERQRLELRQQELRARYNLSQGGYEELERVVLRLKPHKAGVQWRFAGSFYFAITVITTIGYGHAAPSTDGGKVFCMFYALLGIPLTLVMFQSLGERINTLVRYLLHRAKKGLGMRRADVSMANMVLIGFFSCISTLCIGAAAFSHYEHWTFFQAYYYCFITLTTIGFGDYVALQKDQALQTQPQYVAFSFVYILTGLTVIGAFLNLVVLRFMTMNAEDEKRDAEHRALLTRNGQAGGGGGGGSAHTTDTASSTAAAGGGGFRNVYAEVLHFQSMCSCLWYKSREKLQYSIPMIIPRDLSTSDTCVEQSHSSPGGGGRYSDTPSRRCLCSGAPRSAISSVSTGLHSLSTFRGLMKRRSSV

SMILES | IC50 [nM]
CC[C@@H](NC(=O)c1cc(C(=O)N2CCC[C@@H]2C)n2c1COCC2)c1ccc(F)c(C#N)c1 [16gq, 6-((S)-2-Methyl-pyrrolidine-1-carbonyl)-3,4-dihydro-1H-pyrrolo[2,1-c][1,4]oxazine-8-carboxylic acid [(R)-1-(3-cyano-4-fluoro-phenyl)-propyl]-amide] | 490
CC[C@@H](NC(=O)c1cc(C(=O)N[C@H](C)C2CC2)n2c1CCCC2)c1ccccc1 [16mw, 5,6,7,8-Tetrahydro-indolizine-1,3-dicarboxylic acid 3-[((R)-1-cyclopropyl-ethyl)-amide] 1-[((R)-1-phenyl-propyl)-amide]] | 74
CC[C@@H](NC(=O)c1cc(C(=O)N[C@H](C)c2ccc(F)cc2)n2c1SCC2)c1ccccc1 [16kt, 2,3-Dihydro-pyrrolo[2,1-b]thiazole-5,7-dicarboxylic acid 5-{[(R)-1-(4-fluoro-phenyl)-ethyl]-amide} 7-[((R)-1-phenyl-propyl)-amide]] | 27
CC[C@@H](NC(=O)c1cc(C(=O)N2CCC[C@@H]2C)n2c1COCC2)c1ccc(Cl)s1 [16rb, 6-((S)-2-Methyl-pyrrolidine-1-carbonyl)-3,4-dihydro-1H-pyrrolo[2,1-c][1,4]oxazine-8-carboxylic acid [(R)-1-(5-chloro-thiophen-2-yl)-propyl]-amide] | 230
CC[C@@H](NC(=O)c1cc(C(=O)N[C@H](C)c2ccc(F)cc2)n2c1COCC2)c1ccc(C(F)(F)F)cc1 [16eb, 3,4-Dihydro-1H-pyrrolo[2,1-c][1,4]oxazine-6,8-dicarboxylic acid 6-{[(R)-1-(4-fluoro-phenyl)-ethyl]-amide} 8-{[(R)-1-(4-trifluoromethyl-phenyl)-propyl]-amide}] | 250
CCOC(=O)C[C@H]1CCCN1C(=O)c1cc(C(=O)N[C@H](CC)c2ccccc2)c2n1CCOC2 [16fi, {(R)-1-[8-((R)-1-Phenyl-propylcarbamoyl)-3,4-dihydro-1H-pyrrolo[2,1-c][1,4]oxazine-6-carbonyl]-pyrrolidin-2-yl}-acetic acid ethyl ester] | 130
CC[C@@H](NC(=O)c1cc(C(=O)N(CC)CC)n2c1COCC2)c1ccccc1 [16gn, 3,4-Dihydro-1H-pyrrolo[2,1-c][1,4]oxazine-6,8-dicarboxylic acid 6-diethylamide 8-[((R)-1-phenyl-propyl)-amide]] | 250
CC[C@@H](NC(=O)c1cc(C(=O)NCc2ccccc2C#N)n2c1COCC2)c1ccccc1 [16gy, 3,4-Dihydro-1H-pyrrolo[2,1-c][1,4]oxazine-6,8-dicarboxylic acid 6-(2-cyano-benzylamide) 8-[((R)-1-phenyl-propyl)-amide]] | 320
CC[C@@H](NC(=O)c1cc(C(=O)NCC2CCCCC2)n2c1CCCC2)c1ccccc1 [16mp, 5,6,7,8-Tetrahydro-indolizine-1,3-dicarboxylic acid 3-cyclohexylmethyl-amide 1-[((R)-1-phenyl-propyl)-amide]] | 93
CC[C@@H](NC(=O)c1cc(C(=O)N2CCCC2C2CC2)n2c1COCC2)c1ccccc1 (stereo partly drawn) [16gb, 6-(2-Cyclopropyl-pyrrolidine-1-carbonyl)-3,4-dihydro-1H-pyrrolo[2,1-c][1,4]oxazine-8-carboxylic acid ((R)-1-phenyl-propyl)-amide] | 450
CC[C@@H](NC(=O)c1cc(C(=O)N2CCCC2(C)C)n2c1COCC2)c1ccccc1 [16fb, 6-(2,2-Dimethyl-pyrrolidine-1-carbonyl)-3,4-dihydro-1H-pyrrolo[2,1-c][1,4]oxazine-8-carboxylic acid ((R)-1-phenyl-propyl)-amide] | 130
CC[C@@H](NC(=O)c1cc(C(=O)N[C@H](CC)c2cccnc2C(F)(F)F)n2c1COCC2)c1ccccc1 [16hm, 3,4-Dihydro-1H-pyrrolo[2,1-c][1,4]oxazine-6,8-dicarboxylic acid 8-[((R)-1-phenyl-propyl)-amide] 6-{[(R)-1-(2-trifluoromethyl-pyridin-3-yl)-propyl]-amide}] | 660
